How the values were obtained:
Assay type in all cases: cell-based, human
[1] = tested on: STING-independent DNA sensing pathway (SIDSP); test: RT-qPCR of IFNB1 mRNA in CT DNA-treated STING KO U937 cells; settings: PMA-differentiated STING KO U937 cells, CT DNA 16 hours; for SIDSP activation (IFNB1 mRNA expression): Ku-60019 0.125-1 μM, Nu-7441 0.25-2 μM, FIG. 4B
Description: (§1) FIG. 4A-K: Human DNA-PK is essential for the SIDSP. (A) PMA-differentiated STING KO U937 cells were treated with CT DNA for 16 hours in the presence of DMSO control, increasing concentrations of Ku-60019 ATM inhibitor [0.125, 0.25, 0.5, 1 μM], or Nu-7441 DNA-PK inhibitor [0.25, 0.5, 1, 2 μM], followed by western blot analysis of γ-H2AX phosphorylation. (B) PMA-differentiated STING KO U937 cells were treated with CT DNA for 16 hours in the presence of inhibitors as described in (A), followed by RT-qPCR analysis of IFNB1 mRNA expression. n.s.: not significant; ***:p<0.001. n=3 independent treatments per condition. (C) PMA-differentiated STING KO U937 cells were treated with CT DNA or RIG-I ligand in the presence of DMSO or Nu-7441 for 16 hours, followed by RT-qPCR analysis of IFNB1 mRNA expression. n.s.: not significant; ***:p<0.001. n=3 independent treatments per condition. (D) Western blot analysis of DNA-PK and STING in clonal lines of H1 control, STING KO and STING/DNA-PK DKO U937 cells. (E) PMA-differentiated STING KO and STING/DNA-PK DKO U937 cells were treated with CT DNA for 16 hours in DMSO or 2 μM Nu-7441, followed by RT-qPCR analysis of IFNB1 mRNA expression, normalized to Lipo control-treated cells. **:p<0.01. n=3 independent treatments per condition. (F) Primary human foreskin fibroblasts (HFF) and primary human hepatocytes from male (♂) and female (♀) donors were assessed for cGAS, STING, and DNA-PK proteins by fractionation into cytosol (C) and nuclear (N) extracts, followed by western blot. The nuclear extract was treated with salt-active nuclease to remove genomic DNA. (G) The indicated cell lines were stimulated with cGAMP for 16 hours before harvest and RT-qPCR analysis of IFNB1 mRNA expression. […] Multiple t-tests with significance determined by the Holm-Sidak method were used to compare IFNB1 in DMSO versus Nu7441 treated cells. *:p<0.05, ****:P<.0001. n=3 independent treatments per condition. […]

[2] = tested on: histone H2AX on serine 139 (γ-H2AX); test: Western blot of γ-H2AX phosphorylation in CT DNA-treated STING KO U937 cells; settings: PMA-differentiated STING KO U937 cells, CT DNA 16 hours; Ku-60019 0.125-1 μM, Nu-7441 0.25-2 μM; FIG. 4A
Description: as §1, with “(D) Western blot analysis of DNA-PK and STING in clonal lines of H1 control, STING KO and STING/DNA-PK DKO U937 cells. (E) PMA-differentiated STING KO and STING/DNA-PK DKO U937 cells were treated with CT DNA for 16 hours in DMSO or 2 μM Nu-7441, followed by RT-qPCR analysis of IFNB1 mRNA expression, normalized to Lipo control-treated cells. **:p<0.01. n=3 independent treatments per condition.” left out, “blot.” for “blot. The nuclear extract was treated with salt-active nuclease to remove genomic DNA. (G) The indicated cell lines were stimulated with cGAMP for 16 hours before harvest and RT-qPCR analysis of IFNB1 mRNA expression.”

[3] = tested on: RNA-activated RIG-I-MAVS pathway; test: RT-qPCR of IFNB1 mRNA in RIG-I ligand-treated STING KO U937 cells; settings: PMA-differentiated STING KO U937 cells, RIG-I ligand 16 hours, DMSO or Nu-7441; FIG. 4C
Description: as §1, with “(D) Western blot analysis of DNA-PK and STING in clonal lines of H1 control, STING KO and STING/DNA-PK DKO U937 cells. (E) PMA-differentiated STING KO and STING/DNA-PK DKO U937 cells were treated with CT DNA for 16 hours in DMSO or 2 μM Nu-7441, followed by RT-qPCR analysis of IFNB1 mRNA expression, normalized to Lipo control-treated cells. **:p<0.01. n=3 independent treatments per condition.” left out, “blot.” for “blot. The nuclear extract was treated with salt-active nuclease to remove genomic DNA. (G) The indicated cell lines were stimulated with cGAMP for 16 hours before harvest and RT-qPCR analysis of IFNB1 mRNA expression.”

[4] = tested on: WT U937 cells; test: Global mRNA-Seq analysis in WT (H1 control) U937 cells
Text: FIG. 5A-F: The DNA-PK SIDSP activates a broad gene expression program. (A) Heat map representation of log 2 Fold Change in gene expression for the 124 antiviral response genes with significant differential expression in one of the four comparisons. The key includes a histogram in cyan plotting the distribution of log 2 Fold Change values for all the included genes. Data represent the average of three independent treatments per condition. […] Data represent the average of three independent treatments per condition. […] Data represent the average of three independent treatments per condition. (D) In H1 control U937 cells, the 16 hour CT DNA-activated log 2 Fold Change was plotted for DMSO control-treated cells on the x-axis and for Nu-7441-treated cells on the y-axis. Each dot represents a single gene that was differentially expressed at 16 hours in DMSO-treated cells (n=1024). […]
FIG. 8A-E: Normalized mRNA-Seq data comparing WT and STING KO U937 cells. (A) Boxplot depicting normalized read counts in log 2CPM format across all 36 samples. […] (C) Normalized read counts in log 2CPM format, comparing Lipo-treated WT U937 cells to Lipo-treated STING KO U937 cells. (D) Normalized read counts in log 2CPM format, comparing Lipo-treated WT U937 cells pretreated with DMSO or 2 μM N-7441. (E) Normalized read counts in log 2CPM format, comparing Lipo-treated STING KO cells pretreated with DMSO or 2 μM N-7441. […]

[5] = tested on: STING KO U937 cells (DNA-PK SIDSP); test: Global mRNA-Seq analysis in STING KO U937 cells
Description: (A) Heat map representation of log 2 Fold Change in gene expression for the 124 antiviral response genes with significant differential expression in one of the four comparisons. The key includes a histogram in cyan plotting the distribution of log 2 Fold Change values for all the included genes. Data represent the average of three independent treatments per condition. […] Data represent the average of three independent treatments per condition. […] Data represent the average of three independent treatments per condition. (D) In H1 control U937 cells, the 16 hour CT DNA-activated log 2 Fold Change was plotted for DMSO control-treated cells on the x-axis and for Nu-7441-treated cells on the y-axis. Each dot represents a single gene that was differentially expressed at 16 hours in DMSO-treated cells (n=1024). […] A Wilcoxon matched pairs signed rank test was used to determine the p-value between DMSO control and Nu-7441-treated samples after DNA stimulation. Data represent the average of three independent treatments per condition. […]
Total RNA was added directly to lysis buffer from the SMART-Seq v4 Ultra Low Input RNA Kit for Sequencing (Takara), and reverse transcription was performed followed by PCR amplification to generate full length amplified cDNA. […] Libraries were pooled and quantified using a Qubit® Fluorometer (Life Technologies). Dual-index, single-read sequencing of pooled libraries was carried out on a HiSeq2500 sequencer (Illumina) with 58-base reads, using HiSeq™ v4 Cluster and SBS kits (IIlumina) with a target depth of 5 million reads per sample.

[6] = tested on: endoplasmic reticulum (ER) stress response; test: Endoplasmic reticulum stress response in HEK 293 cells; settings: 500 nM Thapsigargin, control
[7] = tested on: IRF3 S386 phosphorylation; test: Western blot of IRF3 pS386 in HEK 293 cells after DNA damage or stress agents; settings: STING KO HEK 293 cells, up to 12 hours; 50 μM Etoposide, 500 nM Thapsigargin

Compound | SIDSP activation (IFNB1 mRNA expression) [1] | DNA-activated phosphorylation of the histone H2AX on serine 139 (γ-H2AX) [2] | DNA-activated antiviral response (IFNB1 mRNA expression) ([1]; DMSO or Nu-7441, FIG. 4C) | RNA-activated RIG-I-MAVS pathway (IFNB1 mRNA expression) [3] | differentially expressed genes on which the inhibitor had a (mild) inhibitory effect ([4]; 16 hours post DNA transfection, 2 μM Nu-7441 vs vehicle, 718/1024 genes, FIG. 5D) | effect on gene expression in the absence of DNA stimulation ([4]; Lipo-treated, 2 μM, FIG. 8D) | differentially expressed genes on which the inhibitor had an inhibitory effect ([5]; STING KO U937 cells, 16 hours post DNA transfection, 2 μM Nu-7441 vs vehicle, 1254/1327 genes, up- and downregulated, FIG. 5E) | effect on gene expression in the absence of DNA stimulation ([5]; STING KO U937 cells, Lipo-treated, 2 μM, FIG. 8E) | gene expression triggered by the SIDSP ([5]; summary statement in discussion) | endoplasmic reticulum (ER) stress response [6] | activation of IRF3 phosphorylation [7]
C[C@@H]1CN(CC(=O)Nc2ccc3c(c2)Cc2cccc(-c4cc(=O)cc(N5CCOCC5)o4)c2S3)C[C@H](C)O1 [Ku-60019] | unaffected | reduced the DNA-activated phosphorylation of the histone H2AX on serine 139 (γ-H2AX) in a concentration-dependent manner |  |  |  |  |  |  |  |  | 
O=c1cc(N2CCOCC2)oc2c(-c3cccc4c3sc3ccccc34)cccc12 [Nu-7441, 8-(dibenzo[b,d]thiophen-4-yl)-2-morpholino-4H-chromen-4-one] | potently blocked | reduced the DNA-activated phosphorylation of the histone H2AX on serine 139 (γ-H2AX) in a concentration-dependent manner | blocked the DNA-activated antiviral response | had no effect | 70.1% | no significant effect | 94.5% | no significant effect | potently reduced nearly all gene expression |  | 
C/C=C(/C)C(=O)O[C@H]1C(C)=C2[C@H]([C@@H]1OC(=O)CCCCCCC)[C@@](C)(OC(C)=O)C[C@H](OC(=O)CCC)[C@@]1(O)[C@H]2OC(=O)[C@@]1(C)O [thapsigargin] |  |  |  |  |  |  |  |  |  | induced a potent endoplasmic reticulum (ER) stress response | but not IRF3, HSPA8, or H2AX phosphorylation
